Results as given in the NIST ThermoML archive (doi:10.1021/je500606d).

Conditions: Liquid, Ebulliometric method (Recirculating still)

COCC(CO)OC (stereo not given) [2,3-dimethoxy-1-propanol]
Conditions | vapor or sublimation pressure [kPa]
337.95 K | 3.2
368.95 K | 7.84
398.1 K | 19.27
408.55 K | 27.33
413.05 K | 32.46
419.7 K | 38.8
423.55 K | 45.86
431.55 K | 59.8
433.15 K | 65.6
434.85 K | 70.66
437.35 K | 76.53
439.75 K | 83.33
441.65 K | 87.26
444.45 K | 95.73
446.65 K | 100.79
